1 molecule from ChEMBL document CHEMBL1141640, “Cyclic guanidines as dual 5-HT5A/5-HT7 receptor ligands: optimising brain penetration” (Bioorg Med Chem Lett, 2008) can be followed below.

The target in assay [1] is T1, 5-hydroxytryptamine receptor 1A (Homo sapiens, UniProt P08908).
T1 sequence (P08908 whole entry): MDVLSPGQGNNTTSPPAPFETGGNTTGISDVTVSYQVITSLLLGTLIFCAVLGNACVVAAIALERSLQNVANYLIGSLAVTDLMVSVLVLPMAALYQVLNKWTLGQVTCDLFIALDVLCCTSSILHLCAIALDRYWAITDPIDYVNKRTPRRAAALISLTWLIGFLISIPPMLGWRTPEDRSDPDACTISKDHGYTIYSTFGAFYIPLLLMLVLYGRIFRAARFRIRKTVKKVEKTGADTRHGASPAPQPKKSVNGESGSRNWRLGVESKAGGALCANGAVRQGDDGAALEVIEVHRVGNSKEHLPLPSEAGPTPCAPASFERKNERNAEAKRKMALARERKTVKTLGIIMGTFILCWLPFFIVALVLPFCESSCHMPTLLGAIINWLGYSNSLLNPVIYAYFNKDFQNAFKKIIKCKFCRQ
As to the kind of experiment: Binding affinity to human 5HT1A receptor.

Assay [2] has as its target 5-hydroxytryptamine receptor 5A (Homo sapiens, UniProt P47898). As to the kind of experiment: Binding affinity to human 5HT5A receptor. The conditions noted are these: read-out: Ki.
The target in assay [3] is 5-hydroxytryptamine receptor 2A (Homo sapiens, UniProt P28223). In words: Binding affinity to human 5HT2A receptor.
Assay [4] deals with 5-hydroxytryptamine receptor 6 (Homo sapiens, UniProt P50406). In words: Binding affinity to human 5HT6 receptor.
The target in assay [5] is T2, 5-hydroxytryptamine receptor 2C (Homo sapiens, UniProt P28335).
T2 sequence (P28335 whole entry): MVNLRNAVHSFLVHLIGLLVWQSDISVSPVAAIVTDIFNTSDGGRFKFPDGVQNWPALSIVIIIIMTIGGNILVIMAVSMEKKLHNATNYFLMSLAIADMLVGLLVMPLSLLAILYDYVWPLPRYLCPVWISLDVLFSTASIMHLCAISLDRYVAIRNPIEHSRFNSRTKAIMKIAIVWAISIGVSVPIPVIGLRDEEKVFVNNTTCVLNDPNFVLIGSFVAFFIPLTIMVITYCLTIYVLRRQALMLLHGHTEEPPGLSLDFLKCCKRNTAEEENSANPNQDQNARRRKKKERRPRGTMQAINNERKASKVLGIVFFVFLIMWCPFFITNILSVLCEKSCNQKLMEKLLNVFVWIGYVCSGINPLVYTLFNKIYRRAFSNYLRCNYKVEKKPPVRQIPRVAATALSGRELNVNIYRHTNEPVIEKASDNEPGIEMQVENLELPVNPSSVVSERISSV
In words: Binding affinity to human 5HT2C receptor.

Assay [6] deals with 5-hydroxytryptamine receptor 1D (Homo sapiens, UniProt P28221). As to the kind of experiment: Binding affinity to human 5HT1D receptor.
The target of assay [7] is 5-hydroxytryptamine receptor 5A (Rattus norvegicus, UniProt P35364). As to the kind of experiment: Binding affinity to rat 5HT5A receptor.
Assay [8] concerns the target 5-hydroxytryptamine receptor 7 (Homo sapiens, UniProt P34969). In words: Binding affinity to human 5HT7 receptor.
In assay [9] the target is T3, 5-hydroxytryptamine receptor 3A (Homo sapiens, UniProt P46098).
T3 sequence (P46098 whole entry): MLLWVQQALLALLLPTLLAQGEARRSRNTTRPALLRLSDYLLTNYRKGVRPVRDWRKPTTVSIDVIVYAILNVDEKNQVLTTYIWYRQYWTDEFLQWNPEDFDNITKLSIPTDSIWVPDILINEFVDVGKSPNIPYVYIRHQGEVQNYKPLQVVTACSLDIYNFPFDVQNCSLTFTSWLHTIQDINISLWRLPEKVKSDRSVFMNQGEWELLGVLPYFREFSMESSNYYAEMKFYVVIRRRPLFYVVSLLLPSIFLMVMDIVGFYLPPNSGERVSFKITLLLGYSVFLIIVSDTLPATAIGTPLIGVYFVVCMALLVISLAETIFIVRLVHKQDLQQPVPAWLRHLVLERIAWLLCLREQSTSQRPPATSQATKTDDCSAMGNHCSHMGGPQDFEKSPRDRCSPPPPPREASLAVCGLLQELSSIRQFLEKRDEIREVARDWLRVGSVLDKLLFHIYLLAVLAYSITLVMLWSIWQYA
In words: Binding affinity to human 5HT3 receptor.

5-hydroxytryptamine receptor 2A, sequence (P28223 whole entry): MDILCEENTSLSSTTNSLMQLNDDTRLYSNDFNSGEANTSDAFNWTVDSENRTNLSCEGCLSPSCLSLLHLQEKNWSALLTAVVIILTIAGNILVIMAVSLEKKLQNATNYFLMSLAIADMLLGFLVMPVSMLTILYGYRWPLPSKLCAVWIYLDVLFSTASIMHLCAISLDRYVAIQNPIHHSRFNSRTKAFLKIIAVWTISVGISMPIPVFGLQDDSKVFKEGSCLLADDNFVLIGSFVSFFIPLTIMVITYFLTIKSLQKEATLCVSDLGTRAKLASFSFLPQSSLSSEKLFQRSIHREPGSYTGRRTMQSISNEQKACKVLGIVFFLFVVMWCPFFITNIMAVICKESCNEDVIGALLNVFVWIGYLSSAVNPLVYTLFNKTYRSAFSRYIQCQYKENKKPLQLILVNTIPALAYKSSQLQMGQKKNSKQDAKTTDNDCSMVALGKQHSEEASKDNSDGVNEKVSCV
5-hydroxytryptamine receptor 1D, sequence (P28221 whole entry): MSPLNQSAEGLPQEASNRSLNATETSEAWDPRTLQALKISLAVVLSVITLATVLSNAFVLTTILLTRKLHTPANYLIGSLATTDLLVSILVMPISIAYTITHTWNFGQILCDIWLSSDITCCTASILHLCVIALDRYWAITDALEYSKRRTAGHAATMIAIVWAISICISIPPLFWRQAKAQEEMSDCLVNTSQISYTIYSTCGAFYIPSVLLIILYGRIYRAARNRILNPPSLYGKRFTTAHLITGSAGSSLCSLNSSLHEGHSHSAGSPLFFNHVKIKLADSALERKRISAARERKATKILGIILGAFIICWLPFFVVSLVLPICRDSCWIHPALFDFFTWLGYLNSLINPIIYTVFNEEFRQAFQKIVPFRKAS
5-hydroxytryptamine receptor 7, sequence (P34969 whole entry): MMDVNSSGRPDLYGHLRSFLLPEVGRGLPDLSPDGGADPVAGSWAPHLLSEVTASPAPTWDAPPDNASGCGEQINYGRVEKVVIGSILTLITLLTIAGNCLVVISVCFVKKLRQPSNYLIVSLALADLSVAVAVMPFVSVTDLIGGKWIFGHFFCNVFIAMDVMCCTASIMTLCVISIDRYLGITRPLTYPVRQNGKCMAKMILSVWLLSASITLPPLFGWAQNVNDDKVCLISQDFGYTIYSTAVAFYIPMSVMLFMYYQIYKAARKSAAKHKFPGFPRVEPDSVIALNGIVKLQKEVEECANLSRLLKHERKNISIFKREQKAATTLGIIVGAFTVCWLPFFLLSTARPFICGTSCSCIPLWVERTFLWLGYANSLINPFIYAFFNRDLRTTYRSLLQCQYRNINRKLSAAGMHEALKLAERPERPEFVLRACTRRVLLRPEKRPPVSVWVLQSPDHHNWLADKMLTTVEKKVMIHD
5-hydroxytryptamine receptor 6, sequence (P50406 whole entry): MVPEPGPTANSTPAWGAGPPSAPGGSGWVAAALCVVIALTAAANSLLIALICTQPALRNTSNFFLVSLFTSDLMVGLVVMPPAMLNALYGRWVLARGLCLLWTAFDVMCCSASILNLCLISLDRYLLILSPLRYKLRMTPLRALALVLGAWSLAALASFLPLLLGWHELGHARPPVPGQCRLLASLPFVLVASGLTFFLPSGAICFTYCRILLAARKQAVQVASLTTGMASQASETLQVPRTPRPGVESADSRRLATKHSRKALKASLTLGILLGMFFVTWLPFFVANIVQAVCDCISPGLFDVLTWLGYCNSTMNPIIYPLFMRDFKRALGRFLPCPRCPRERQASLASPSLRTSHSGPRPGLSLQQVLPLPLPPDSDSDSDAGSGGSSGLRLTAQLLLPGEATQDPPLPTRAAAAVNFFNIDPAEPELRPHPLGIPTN
5-hydroxytryptamine receptor 5A (Rattus norvegicus, UniProt P35364), sequence (P35364 whole entry): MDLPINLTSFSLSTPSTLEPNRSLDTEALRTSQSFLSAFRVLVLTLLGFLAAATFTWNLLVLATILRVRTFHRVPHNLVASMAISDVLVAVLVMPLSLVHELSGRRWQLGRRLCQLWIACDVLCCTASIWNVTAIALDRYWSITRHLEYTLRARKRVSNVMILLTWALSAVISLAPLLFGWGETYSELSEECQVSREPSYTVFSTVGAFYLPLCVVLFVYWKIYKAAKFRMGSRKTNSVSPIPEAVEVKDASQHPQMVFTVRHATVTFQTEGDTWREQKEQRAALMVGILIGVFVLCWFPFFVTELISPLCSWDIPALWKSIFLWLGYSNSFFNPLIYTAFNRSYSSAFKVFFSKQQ
5-hydroxytryptamine receptor 5A (Homo sapiens, UniProt P47898), sequence (P47898 whole entry): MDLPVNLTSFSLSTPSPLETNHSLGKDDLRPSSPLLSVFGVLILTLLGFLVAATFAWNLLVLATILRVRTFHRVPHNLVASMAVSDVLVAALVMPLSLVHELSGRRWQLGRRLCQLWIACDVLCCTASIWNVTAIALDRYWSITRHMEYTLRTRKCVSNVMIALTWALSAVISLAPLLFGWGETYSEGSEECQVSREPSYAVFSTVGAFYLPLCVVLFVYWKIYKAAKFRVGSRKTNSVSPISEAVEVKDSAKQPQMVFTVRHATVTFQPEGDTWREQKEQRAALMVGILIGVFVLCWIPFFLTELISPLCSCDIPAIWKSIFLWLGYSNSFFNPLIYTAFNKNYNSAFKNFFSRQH

For `C[C@@H]1NC(N)=Nc2cccc(Cl)c21`, the Ki amounted to 0.0952 µM in assay [1]; 0.0016 µM in [2]; 0.257 µM in assay [3]; 1.03 µM in assay [4]; 0.055 µM in assay [5]; 1.1 µM in [6]. The Ki in assay [7] is 0.0013 µM; in assay [8], 0.006 µM; in [9] it was 1.06 µM.

In general, Ki refers to the equilibrium dissociation constant of an inhibitor or competing ligand from its target.
